The source of these data is paper PMC4632246 (Analytical biochemistry, 2012).

Assay type in all cases: binding
Test [1] has as its target Hsp90α-NT (human Hsp90α immobilized via the N-terminal) (Homo sapiens, UniProt P07900). Description: Frontal chromatography on Hsp90α-NT column. Conditions: for Bmax: Hsp90α-NT column, frontal chromatography, number of active binding sites, ±SE.
For test [2], the target named is Hsp90α-CT (human Hsp90α immobilized via the C-terminal) (Homo sapiens, UniProt P07900). Put plainly: Frontal chromatography on Hsp90α-CT column. To be noted: for Bmax: Hsp90α-CT column, frontal chromatography, number of active binding sites, ±SE.
The target of test [3] is Hsp90α-NT (middle domain of Hsp90α) (Homo sapiens, UniProt P07900). Put plainly: Competition studies of eNOS and CEP on Hsp90α-NT column. Conditions: eNOS added to the mobile phase.

What is called Kd is the concentration at which binding is half-saturated. In test [1], `COc1cc2c3c(c1OC)Oc1ccc(cc1)C[C@@H]1c4c(cc(OC)c(OC)c4Oc4ccc(cc4)C[C@H]3N(C)CC2)CCN1C` [Cycleanine, cycleanine] came in with a Kd of 159 ± 23.2 µM and a Bmax of 37.3 ± 2.5 nmol. In test [2], this molecule yielded a Kd of 143 ± 36.6 µM and a Bmax of 578 ± 110 nmol.
Turning to isotetrandrine, the Bmax in test [1] was 54.7 ± 6.3 nmol; in test [2], 250 ± 29.7 nmol.
For berbamine, in that order: 36.5 ± 3.3 nmol and 89.7 ± 17.1 nmol.
`COc1ccc2cc1Oc1ccc(cc1)C[C@H]1c3c(cc4c(c3Oc3cc5c(cc3OC)CCN(C)[C@@H]5C2)OCO4)CCN1C` [Cepharanthine, cepharanthine]: the results for the Kd in test [1] and in test [2] were 5.3 ± 1.3 µM and 6.3 ± 1.7 µM, respectively. For the same molecule, the Bmax in test [1] was 19.8 ± 3.1 nmol; in test [2], 56.9 ± 7.2 nmol. Further, the “retention factors of CEP with an increase in eNOS concentrations” value in test [3] is “decreased”.
